Among the data in patent US11279697B2, “Aromatic derivative, preparation method for same, and medical applications thereof” (BIOARDIS LLC, priority 2017, dated 2022) are IC50 values, retold here.

In this experiment the target is human FGFR4 protein (460-802 amino acids) (Homo sapiens (Human), UniProt P22455). The experiment in a line: FGFR4 Activity Inhibition Test (HTRF KinEASE-TK in vitro kinase assay). The format is biochemical. The following applies: compound-enzyme incubation 60 min at room temperature, kinase reaction 37° C. 40 min, 10 concentration points. The method, then:
The influence of the compound of the present invention on the activity of the tyrosine kinase FGFR4 was evaluated by an in vitro kinase assay experiment. The experimental method is summarized as follows: A HTRF® KinEASE™-TK 20000 tests kinase assay kit from CISBIO Corp. was used. The kit provided a biotin-labeled substrate, an EU-labeled phosphorylation site-specific antibody, and XL665-labeled avidin and a related buffer. FGFR4 phosphorylated the substrate, Eu-Ab identified the phosphorylated substrate, and XL665-SA binded to the biotin on the substrate, making Eu get closer to XL665, thus generating the HTRF signal. Changes in the activity of kinase was detected by reading the intensity of the HTRF signal. In the kinase assay experiment, there were mainly two steps of reaction: kinase reaction and assay reaction, respectively. In the kinase reaction, the kinase consumed ATP to phosphorylate the substrate, and at the same time produced a substrate containing a phosphate group. In the assay reaction, an assay reagent was added to terminate the kinase reaction. At the same time, the specific antibody and the XL665-labeled avidin in the assay reagent were binded to the phosphate group on the substrate and biotin respectively to generate HTRF signals. The signal intensity was directly proportional to the phosphorylation level of the substrate, and thereby the activity of the kinase FGFR4 could be quantitatively assayed. During the assay, the binding and incubation of the compound with the enzyme was carried out at room temperature for 60 min. The kinase reaction was carried out at a constant temperature of 37° C. for 40 min. […] The kinase substrates were TK (commercially available from Cisbio) and ATP (Sigma). The optical signals were read by a microplate reader TECAN Spark 10M plate reader (TECAN). The kinase reaction buffer comprised 1× Enzymatic buffer (CISBIO) 5 mM MgCl2 (Sigma) and 1 mM DTT (Sigma). […] First, the compound was dissolved and diluted with 100% DMSO into a 96-well plate at 3 concentrations: 4 mM, 40 μM, and 0.4 μM. […] Each concentration point was provided with two copy holes (starting point 10 μM, 3-fold dilution). First, 6 μL of the kinase solution was added into the 384-well assay plate, mixed uniformly and then incubated at room temperature for 60 min. Then 4 μL of the substrate reaction solution was added, and the total reaction volume was 10 μL. […] Subsequently, 10 μL of the kinase assay reagent was added and the reaction was terminated. Then the numerical values were read on the TECAN plate reader. The inhibition percentage was calculated based on the following formula: % inhibition=[1−(RLUcompound−RLUmin)/(RLUmax−RLUmin)]×100 wherein RLUcompound is the luminescence reading at the given compound concentration, RLUmin is the luminescence reading without the addition of kinase, and RLUmax is the luminescence reading without the addition of the compound. IC50 of the compound was calculated by the XLfit program in Excel.
In general terms: TR-FRET usually uses a lanthanide donor and a delayed reading to cut background.

Sequence of human FGFR4 protein (460-802 amino acids) (P22455 460-802): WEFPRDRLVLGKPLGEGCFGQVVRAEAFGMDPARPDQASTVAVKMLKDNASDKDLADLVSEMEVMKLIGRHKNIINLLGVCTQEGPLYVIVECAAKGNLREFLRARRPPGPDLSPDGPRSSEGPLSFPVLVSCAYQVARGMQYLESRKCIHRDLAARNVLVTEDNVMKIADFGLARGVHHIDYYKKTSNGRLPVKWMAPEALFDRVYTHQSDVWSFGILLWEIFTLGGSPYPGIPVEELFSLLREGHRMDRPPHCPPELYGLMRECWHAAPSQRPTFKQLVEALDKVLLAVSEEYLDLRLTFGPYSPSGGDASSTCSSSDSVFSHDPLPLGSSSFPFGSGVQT

As a reminder, the IC50 is the concentration needed to halve the response being measured. Read a low IC50 as higher potency. With `C=CC(=O)Nc1ccc(Cl)cc1-c1n[nH]c2c1CC[C@@H](c1c(Cl)c(OC)cc(OC)c1Cl)C2` (single isomer, unassigned) [Compound 287-P2, N-(4-chloro-2-(6-(2,6-dichloro-3,5-dimethoxyphenyl)-4,5,6,7-tetrahydro-1H-indazol-3-yl)phenyl)acrylamide], the IC50 amounted to 91.1 nM.
Then `C=CC(=O)Nc1ccc(N2CCN(C)CC2)cc1-c1n[nH]c2c1CC[C@@H](c1c(F)c(OC)cc(OC)c1F)C2` (single isomer, unassigned) [Compound 301-P1, N-(2-(6-(2,6-difluoro-3,5-dimethoxyphenyl)-4,5,6,7-tetrahydro-1H-indazol-3-yl)-4-(4-methylpiperazin-1-yl)phenyl)acrylamide], with 3.4 nM.
The value for `C=CC(=O)Nc1ccccc1-c1n[nH]c2c1CCC(c1cc(OC)cc(OC)c1F)C2` (stereo not drawn) [Compound 114, N-(2-(6-(2-fluoro-3,5-dimethoxyphenyl)-4,5,6,7-tetrahydro-1H-indazol-3-yl)phenyl)acrylamide] was 158 nM; that for `C=CC(=O)Nc1cnn(C)c1-c1n[nH]c2c1CC[C@@H](c1cc(OC)cc(OC)c1Cl)C2` (single isomer, unassigned) [Compound 311-P1, N-(5-(6-(2-chloro-3,5-dimethoxyphenyl)-4,5,6,7-tetrahydro-1H-indazol-3-yl)-1-methyl-1H-pyrazol-4-yl)acrylamide] was 203 nM.
Compound `C=CC(=O)Nc1ccc(N2CCN(C)CC2)cc1-c1n[nH]c2c1CC[C@@H](c1c(Cl)c(OC)cc(OC)c1Cl)C2` (single isomer, unassigned) [Compound 283-P1, N-(2-(6-(2,6-dichloro-3,5-dimethoxyphenyl)-4,5,6,7-tetrahydro-1H-indazol-3-yl)-4-(4-methylpiperazin-1-yl)phenyl)acrylamide] came in with an IC50 of 190 nM.
Regarding `CC#CC(=O)Nc1ccccc1-c1cc(CCc2c(Cl)c(OC)cc(OC)c2Cl)[nH]n1` [Compound 096, N-(2-(5-(2,6-dichloro-3,5-dimethoxyphenethyl)-1H-pyrazol-3-yl)phenyl)but-2-ynoic amide], the concentration for half-maximal inhibition (IC50) worked out at 348 nM.
Then `C=CC(=O)Nc1ccccc1-c1n[nH]c2c1CCC(c1c(F)c(OC)cc(OC)c1F)C2` (stereo not drawn) [Compound 093, N-(2-(6-(2,6-difluoro-3,5-dimethoxyphenyl)-4,5,6,7-tetrahydro-1H-indazol-3-yl)phenyl)acrylamide], with 29.2 nM; and `C=CC(=O)Nc1cnn(C)c1-c1n[nH]c2c1CC[C@@H](c1c(F)c(OC)cc(OC)c1Cl)C2` (single isomer, unassigned) [Compound 303-P1, N-(5-(6-(2-chloro-6-fluoro-3,5-dimethoxyphenyl)-4,5,6,7-tetrahydro-1H-indazol-3-yl)-1-methyl-1H-pyrazol-4-yl)acrylamide], with 6 nM.
With `C=CC(=O)Nc1cc(F)ccc1-c1n[nH]c2c1CCC(c1c(Cl)c(OC)cc(OC)c1Cl)=C2` [Compound 296, N-(2-(6-(2,6-dichloro-3,5-dimethoxyphenyl)-4,5-dihydro-1H-indazol-3-yl)-5-fluorophenyl)acrylamide], the half-maximal inhibitory concentration (IC50) was 118 nM.
As to `C=CC(=O)Nc1cc(Cl)ccc1-c1n[nH]c2c1CC[C@@H](c1c(Cl)c(OC)cc(OC)c1Cl)C2` (single isomer, unassigned) [Compound 289-P2, N-(5-chloro-2-(6-(2,6-dichloro-3,5-dimethoxyphenyl)-4,5,6,7-tetrahydro-1H-indazol-3-yl)phenyl)acrylamide], the midpoint of inhibition, the IC50, lay at 210 nM.
Then `C=CC(=O)Nc1ccc(N2CCOCC2)cc1-c1n[nH]c2c1CCC(c1c(Cl)c(OC)cc(OC)c1Cl)=C2` [Compound 300, N-(2-(6-(2,6-dichloro-3,5-dimethoxyphenyl)-4,5-dihydro-1H-indazol-3-yl)-4-morpholinophenyl)acrylamide], with 504 nM; and `C=CC(=O)Nc1ccc(Cl)cc1-c1n[nH]c2c1CC[C@@H](c1c(Cl)c(OC)cc(OC)c1Cl)C2` (single isomer, unassigned) [Compound 287-P1, N-(4-chloro-2-(6-(2,6-dichloro-3,5-dimethoxyphenyl)-4,5,6,7-tetrahydro-1H-indazol-3-yl)phenyl)acrylamide], with 158 nM; and `C=CC(=O)Nc1ccc(F)cc1-c1n[nH]c2c1CCC(c1c(Cl)c(OC)cc(OC)c1Cl)=C2` [Compound 297, N-(2-(6-(2,6-dichloro-3,5-dimethoxyphenyl)-4,5-dihydro-1H-indazol-3-yl)-4-fluorophenyl)acrylamide], with 236 nM.
Then `C=CC(=O)Nc1ccc(N2CCN(C)CC2)cc1-c1n[nH]c2c1CC[C@@H](c1c(F)c(OC)cc(OC)c1F)C2` (single isomer, unassigned) [Compound 301-P2, N-(2-(6-(2,6-difluoro-3,5-dimethoxyphenyl)-4,5,6,7-tetrahydro-1H-indazol-3-yl)-4-(4-methylpiperazin-1-yl)phenyl)acrylamide], with 11.8 nM.
Then `C=CC(=O)Nc1cnn(C)c1-c1n[nH]c2c1CC[C@@H](c1cc(OC)cc(OC)c1)C2` (single isomer, unassigned) [Compound 310-P1, N-(5-(6-(3,5-dimethoxyphenyl)-4,5,6,7-tetrahydro-1H-indazol-3-yl)-1-methyl-1H-pyrazol-4-yl)acrylamide], with 446 nM; and `C=CC(=O)Nc1cnn(C)c1-c1n[nH]c2c1CC[C@@H](c1cc(OC)cc(OC)c1F)C2` (single isomer, unassigned) [Compound 302-P2, N-(5-(6-(2-fluoro-3,5-dimethoxyphenyl)-4,5,6,7-tetrahydro-1H-indazol-3-yl)-1-methyl-1H-pyrazol-4-yl)acrylamide], with 35.4 nM.
As to `C=CC(=O)Nc1cc(Cl)ccc1-c1n[nH]c2c1CC[C@@H](c1c(Cl)c(OC)cc(OC)c1Cl)C2` (single isomer, unassigned) [Compound 289-P1, N-(5-chloro-2-(6-(2,6-dichloro-3,5-dimethoxyphenyl)-4,5,6,7-tetrahydro-1H-indazol-3-yl)phenyl)acrylamide], 109 nM corresponded to half-maximal inhibition (IC50).
`C=CC(=O)Nc1cnn(C)c1-c1n[nH]c2c1CC[C@@H](c1c(F)c(OC)cc(OC)c1F)C2` (single isomer, unassigned) [Compound 281-P2, N-(5-(6-(2,6-difluoro-3,5-dimethoxyphenyl)-4,5,6,7-tetrahydro-1H-indazol-3-yl)-1-methyl-1H-pyrazol-4-yl)acrylamide] gave an IC50 of 2.96 nM.
`C=CC(=O)Nc1cnn(C)c1-c1n[nH]c2c1CC[C@@H](c1cc(OC)cc(OC)c1Cl)C2` (single isomer, unassigned) [Compound 311-P2, N-(5-(6-(2-chloro-3,5-dimethoxyphenyl)-4,5,6,7-tetrahydro-1H-indazol-3-yl)-1-methyl-1H-pyrazol-4-yl)acrylamide] had an IC50 of 129 nM.
Then `C=CC(=O)Nc1cnn(C)c1-c1n[nH]c2c1CC[C@@H](c1cc(OC)cc(OC)c1F)C2` (single isomer, unassigned) [Compound 302-P1, N-(5-(6-(2-fluoro-3,5-dimethoxyphenyl)-4,5,6,7-tetrahydro-1H-indazol-3-yl)-1-methyl-1H-pyrazol-4-yl)acrylamide], with 85.5 nM; and `C=CC(=O)Nc1cnn(C)c1-c1n[nH]c2c1CC[C@@H](c1cc(OC)cc(OC)c1)C2` (single isomer, unassigned) [Compound 310-P2, N-(5-(6-(3,5-dimethoxyphenyl)-4,5,6,7-tetrahydro-1H-indazol-3-yl)-1-methyl-1H-pyrazol-4-yl)acrylamide], with 171 nM.
